1 molecule from EPA's ToxValDB 9.5 (doi:10.2903/j.efsa.2013.3182) can be followed below.

Converted amounts (≈) assume the structure as drawn.

Data set [1] deals with Anas platyrhynchos.
The subject of data set [2] is Apis mellifera. The settings on record: acute, duration: 48 hours, mortality.
In data set [3] the test system is Bibionidae. The settings on record: chronic/long-term; duration: 28 days.
For data set [4], the system named is Canidae. The settings on record: oral, Dog Other, organ weight.
Data set [5] deals with Colinus virginianus. The settings on record: acute, oral, mortality.
The subject of data set [6] is Daphnia magna. The settings on record: chronic/long-term; duration: 21 days; reproduction.
Data set [7] relates to Oncorhynchus mykiss. The settings on record: acute; duration: 96 hours; mortality.
Data set [8] concerns Pimephales promelas. The note with it: chronic/long-term; duration: 40 days; time to hatch.
Data set [9] deals with Rattus norvegicus. The settings on record: acute; oral; mortality.
Data set [10] relates to Tagia sp. The settings on record: acute; duration: 14 days; mortality.
Data set [11] has as its system Aphidius rhopalosiphi. Briefly: LR50; higher = less toxic. The settings on record: chronic/long-term; duration: 7 days; mortality.
For data set [12], the system named is Typhlodromus pyri. Briefly: LR50; higher = less toxic. The settings on record: chronic/long-term; duration: 7 days; mortality.

As to `COc1cc(OC)n2nc(NS(=O)(=O)c3c(C(F)(F)F)ccnc3OC)nc2n1` [Pyroxsulam], the LD50 is > 2000 mg/kg-day in [1] (acute, oral, unspecified, mortality); > 100 µg/piece in data set [2] (dermal); > 107 µg/piece in [2] (oral, unspecified); > 2000 mg/kg-day in [5]; > 2000 mg/kg-day in [9]. Besides, the NOAEL in data set [1] (reproductive) turned out to be 46.3 mg/kg-day; in [4] (chronic, duration: 1 years), 89 mg/kg-day; in [4] (subchronic, duration: 90 days), 100 mg/kg-day. The values for the NOEC in [3], in data set [6] and in [8] were 100 mg/L, 10.4 mg/L and 10.1 mg/L, respectively. For the same molecule, the LC50 in [5] (diet) is > 988 mg/kg-day; in data set [7], 5.9 µg/mL (≈ 13.6 µM); in data set [10] it was > 10000 mg/kg. The LR50 in data set [11] and in data set [12] was > 37.5 g/ha in each case.
